From the RepoRT retention time repository (doi:10.1021/acs.analchem.1c00972)

Key:
[1] = RP, Waters ACQUITY UPLC BEH C18, 100 × 1 mm, 1.7 µm, 50 °C, 0.3 mL/min, estimated dead time 0.17 min; A: water + 10 mM ammonium bicarbonate; B: 10% water + 90% methanol + 10 mM ammonium bicarbonate; gradient (min/%B) 0/0 15/100 21/100 22/0 30/0; details: stereoisomer not certain
[2] = RP, Waters ACQUITY UPLC BEH C18, 100 × 1 mm, 1.7 µm, 50 °C, 0.3 mL/min, estimated dead time 0.17 min; A: water + 0.1% formic acid + 20 mM ammonium formate; B: methanol + 0.1% formic acid + 20 mM ammonium formate; gradient (min/%B) 0/0 15/100 21/100 22/0 30/0; details: stereoisomer not certain

| LC retention time [1] [min] | LC retention time [2] [min] | Structure (SMILES) |
| --- | --- | --- |
| 8.01 | 7.61 | Cc1cc(=O)[nH]c(C(C)C)n1 [2-Isopropyl-6-methyl-pyrimidin-4-ol] |
| 12.6 | 14.4 | COC(=O)c1ccccc1S(=O)(=O)NC(=O)Nc1nc(OC(F)F)cc(OC(F)F)n1 [Primisufuron-methyl] |
| 14.6 | 14.4 | CC(C)(C)C(O)C(Cc1ccc(Cl)cc1)n1cncn1 (stereo not given) [Paclubutrazole] |
| 18.5 | 18.1 | CCCCOC(=O)CCCCCCCCC(=O)OCCCC [Dibutyl sebacate] |
| 14.8 | 9.81 | COc1ccc2c(c1OC)C(=O)OC2C1c2c(cc3c(c2OC)OCO3)CCN1C (stereo not given) [Noscapin] |
| 15.1 | 14.8 | Cc1ccc(C(C)NC(=O)C(NC(=O)OC(C)C)C(C)C)cc1 (stereo not given) [Iprovalicarb] |
| 18.1 | 17.7 | CCCCCCCCCCSCCOCCO [2(2(decylsulfanyl)ethoxy)ethanol] |
| 17.1 | 16.7 | CCCCOC(=O)C(C)Oc1ccc(Oc2ccc(C(F)(F)F)cn2)cc1 (stereo not given) [Fluazifop-butyl] |
| 15.7 | 11.7 | CN(C)CCOC(c1ccccc1)c1ccccc1 [Diphenhydramine] |
| 16.1 | 11.3 | O=C1Cc2cc(CCN3CCN(c4nsc5ccccc45)CC3)c(Cl)cc2N1 [Ziprasidone] |
| 14.1 | 13.8 | CC(=O)C1(O)CCC2C3CC(C)C4=CC(=O)C=CC4(C)C3(F)C(O)CC21C (stereo not given) [Fluorometholone] |
| 19 | 18.6 | CON=C1CC2(CC3CC(CC=C(C)CC(C)C=CC=C4COC5C(O)C(C)=CC(C(=O)O3)C45O)O2)OC(C(C)=CC(C)C)C1C (stereo not given) [Moxidectin] |
| 17.8 | 12.9 | CC(CN(C)C)CN1c2ccccc2CCc2ccccc21 (stereo not given) [Trimipramine] |
| 14.5 | 14.2 | CC12CCC(=O)C=C1C=CC1C2CCC2(C)C1CCC21CCC(=O)O1 (stereo not given) [Canrenone] |
| 17.3 | 16.9 | CCCCCC(C)OC(=O)COc1ccc(Cl)c2cccnc12 (stereo not given) [Cloquintocet-mexyl] |
| 16.8 | 16.4 | CCCCCCCCCCCC(=O)N(CCO)CCO [Lauryl diethanolamide] |
| 14.6 | 14.4 | CC(Cl)COP(=O)(OCC(C)Cl)OCC(C)Cl (stereo not given) [Tris(2-chloropropyl) phosphate] |
| 17.5 | 17.2 | CC(C)c1ccc2sc3ccccc3c(=O)c2c1 [2-Isopropylthioxanthone] |
| 6.92 | 6.88 | NCCc1ccc(O)c(O)c1 [Dopamine] |

| LC retention time [1] [min] | LC retention time [2] [min] | Structure (SMILES) |
| --- | --- | --- |
| 8.77 | 4.92 | CCC1C(=O)OCC1Cc1cncn1C (stereo not given) [Pilocarpine] |
| 13.9 | 13.6 | CC1(C)OC2CC3C4CCC5=CC(=O)C=CC5(C)C4C(O)CC3(C)C2(C(=O)CO)O1 (stereo not given) [Desonide] |
| 12.8 | 10.6 | CC(CCc1ccccc1)NCC(O)c1ccc(O)c(C(N)=O)c1 (stereo not given) [Labetalol] |
| 15.8 | 14.1 | c1ccc2sc(NC3CCCCC3)nc2c1 [N-cyclohexyl-2-benzothiazole-amine] |
| 11 | 10.9 | NC(=O)N1c2ccccc2C2OC2c2ccccc21 (stereo not given) [Carbamazepine-10,11-epoxide] |
| 13.9 | 11.2 | Cc1ccc(NC(=O)c2ccc(CN3CCN(C)CC3)cc2)cc1Nc1nccc(-c2cccnc2)n1 [Imatinib] |
| 15.8 | 15.4 | CC(=O)OC1(C(C)=O)CCC2C3CC(C)C4=CC(=O)CCC4(C)C3CCC21C (stereo not given) [Medroxyprogesteroneacetate] |
| 13.8 | 11.1 | CC(C)NCC(O)COc1ccc(COCCOC(C)C)cc1 (stereo not given) [Bisoprolol] |
| 17.3 | 17 | CC(C)OC(=O)C(C)(C)Oc1ccc(C(=O)c2ccc(Cl)cc2)cc1 [Fenofibrate] |
| 10.3 | 6.03 | CCN1CCCC1CNC(=O)c1cc(S(N)(=O)=O)ccc1OC (stereo not drawn) [(s)-(-)-Sulpiride] |
| 14.8 | 9.6 | COc1cc2c(cc1OC)C1Cc3ccc(OC)c(OC)c3CN1CC2 (stereo not given) [Tetrahydropalmatin] |
| 12.6 | 12.8 | Oc1ccc(C(F)(F)F)cc1 [4-Trifluoromethylphenol] |
| 13.8 | 13.5 | Clc1nc2ccccc2s1 [2-Chlorobenzothiazole] |
| 6.66 | 7.88 | c1ccc2n[nH]nc2c1 [1H-Benzotriazole] |
| 10.7 | 6.44 | OCC(O)CN1CCN(c2ccccc2)CC1 (stereo not given) [Dropropizine] |
| 14.7 | 10.5 | Cc1nc2n(c(=O)c1CCN1CCC(c3noc4cc(F)ccc34)CC1)CCCC2 [Risperidone] |
| 9.93 | 9.79 | O=c1ccc2ccccc2o1 [Coumarin] |
| 5.61 | 12.3 | NCC(O)COc1ccc(CC(N)=O)cc1 (stereo not given) [Atenolol-desisopropyl] |
| 16.9 | 16.6 | CC1COC(=O)c2cc3c(cc21)C(C)(C)C(C)C3(C)C (stereo not given) [Galaxolidone] |

| Structure (SMILES) | LC retention time [1] [min] | LC retention time [2] [min] |
| --- | --- | --- |
| O=C(O)c1nc(Cl)ccc1Cl [Clopyralid] | 3.37 | 6.09 |
| CN=CNc1ccc(C)cc1C [N-(2,4-Dimethylphenyl)-N-methyl-formamidine] | 12.1 | 7.83 |
| CCC(=NOCC=CCl)C1=C(O)CC(C2CCOCC2)CC1=O (single isomer, unassigned; peak1) [Tepraloxydim Peak1] | 9.25 | 14.7 |
| O=[N+]([O-])N=C1NCCN1Cc1ccc(Cl)nc1 [Imidacloprid] | 8.74 | 8.69 |
| CCN(CC)C(=O)SCc1ccc(Cl)cc1 [Thiobencarb] | 16.4 | 16 |
| CCCCCCCCCCOC(=O)c1ccccc1C(=O)OCCCCCCCCCC [Didecylphthalat] | 21.4 | 20.1 |
| O=C1CC2OCC=C3CN4CCC56c7ccccc7N1C5C2C3CC46 (single isomer, unassigned; (-)) [(-)-Strychnine] | 12.3 | 7.73 |
| CON=C(C(=O)OC)c1ccccc1COc1ccccc1C [Kresoxim-methyl] | 15.8 | 15.4 |
| CNC(=O)ON=CC(C)(C)S(C)=O (stereo not given) [Aldicarb Sulfoxide] | 6.62 | 6.57 |
| NC(=Nc1ccccc1)Nc1ccccc1 [1,3-Diphenylguanidine] | 10 | 8.76 |
| C=CCOC(=O)c1ccccc1C(=O)OCC=C [Diallylphthalate] | 14.5 | 14.2 |
| C=C1C(=O)OC2CC[N+]3([O-])CC=C(COC(=O)C(C)(O)C(C)C1C)C23 (stereo not given) [Senecivernine N-oxide] | 9.7 | 8.69 |
| COCC(=O)N(c1c(C)cccc1C)N1CCOC1=O [Oxadixyl] | 11.2 | 11 |
| CC1=CC2OC3C(O)C(O)C(C)(C34CO4)C2(CO)C(O)C1=O (stereo not given) [Nivalenol] | 5.94 | 5.87 |
| CC1=C2C(=O)C3C(CC=C4CC(O)CCC43C)C2CCC12OC1CC(C)CNC1C2C (stereo not given) [Jervine] | 15.2 | 11.7 |
| CN(C)c1nc(=O)n(C2CCCCC2)c(=O)n1C [Hexazinone] | 11.9 | 11.7 |
| CCCCNC(=O)OCC#CI [3-Iodopropynyl butylcarbamate] | 13.2 | 12.9 |
| C=C1CC(=CC)C(=O)OC2CC[N+]3([O-])CC=C(COC(=O)C1(C)O)C23 (stereo not given) [Seneciphylline N-oxide] | 8.91 | 8.11 |
| CC(C)C1(C)N=C(c2nc3ccccc3cc2C(=O)O)NC1=O (stereo not given) [Imazaquin] | 9.01 | 11.8 |
| COc1cc2c(cc1OC)C13CCN4CC5=CCOC6CC(=O)N2C1C6C5CC43 (stereo not given) [Brucine] | 12.1 | 8.1 |
| CN(C(=O)COc1nc2ccccc2s1)c1ccccc1 [Mefenacet] | 14.9 | 14.6 |
| O=C1CC2(CCCCC2)CN1 [Gabapentin-Lactam] | 11.4 | 11.3 |
| CCOP(=O)(NC(C)C)Oc1ccc(S(C)(=O)=O)c(C)c1 (stereo not given) [Fenamiphos-sulfone] | 12.4 | 12.2 |
| COP(=S)(OC)Oc1ccc(S(C)=O)c(C)c1 (stereo not given) [Fenthion-sulfoxide] | 12.3 | 12.1 |
| O=C(Nc1ccc(F)cc1F)c1cccnc1Oc1cccc(C(F)(F)F)c1 [Diflufenican] | 16.7 | 16.3 |
| NCC1(CC(=O)O)CCCCC1 [Gabapentin] | 6.17 | 7.38 |
| Cc1cccc2sc3nncn3c12 [Tricyclazole] | 10.4 | 10.3 |
